Patent US20230398130A1, “METHODS AND COMPOSITIONS FOR DIFFERENTIATING STEM CELLS” (Massachusetts Institute of Technology, priority 2020, published 2023)

Key:
[1] = system: ISC-enriched organoids; experiment: Primary screen, 384-well 2.5-D organoid differentiation (ENR+CD, 6 days): basal lysozyme secretion (LYZ.NS); type: cell-based, murine; details: for Dose.FC.LYZ.NS / Z.LYZ.NS: primary screen; for Dose.FC.LYZ.NS: ENR+CD 6 days, FC vs plate median; for Z.LYZ.NS: standard z score of FC; for Dose.FC.LYZ.NS (log 2 fold change, basal lysozyme secretion): vs plate median
Description: (§1) High-throughput screening.

[2] = system: ISC-enriched organoids; experiment: Primary screen, 384-well 2.5-D organoid differentiation (ENR+CD, 6 days): carbachol-induced lysozyme secretion (LYZ.S); type: cell-based, murine; details: for Dose.FC.LYZ.S: primary screen, ENR+CD 6 days, FC vs plate median; for Dose.FC.LYZ.S (log 2 fold change, carbachol-induced lysozyme secretion): vs plate median
Description: as §1

[3] = system: ISC-enriched organoids; experiment: Primary screen, 384-well 2.5-D organoid differentiation (ENR+CD, 6 days, Target Selective Inhibitor Library, vs whole-plate median): ATP (CellTiter-Glo 3D, CTG); details: for Dose.FC.CTG / Z.CTG: primary screen; for Dose.FC.CTG: ENR+CD 6 days, FC vs plate median; for Z.CTG: standard z score of FC; for Dose.FC.CTG (log 2 fold change, ATP): vs plate median
[4] = dose 0.08 uM (1st of 4 lines per treatment; dose not printed in this part)
[5] = dose 0.40 uM (2nd of 4 lines per treatment; dose not printed in this part)
[6] = dose 2.00 uM (3rd of 4 lines per treatment; dose not printed in this part)
[7] = dose 10.00 uM (4th of 4 lines per treatment; dose not printed in this part)

C=CCNC1=C2C[C@@H](C)C[C@H](OC)[C@H](O)[C@@H](C)/C=C(\C)[C@H](OC(N)=O)[C@@H](OC)/C=C\C=C(/C)C(=O)NC(=CC1=O)C2=O [17-AAG (Tanespimycin)]
SSMD.LYZ.NS_Rep (strictly standardized mean difference) [1, 4]: −1.180
SSMD.LYZ.NS_Rep (strictly standardized mean difference) [1, 5]: −1.186
SSMD.LYZ.NS_Rep (strictly standardized mean difference) [1, 6]: −1.053
SSMD.LYZ.NS_Rep (strictly standardized mean difference) [1, 7]: −1.183
Dose.FC.LYZ.NS ([1]; dose 0.08 uM): −0.193 log 2 fold change
Z.LYZ.NS ([1]; dose 0.08 uM): −1.682
Dose.FC.LYZ.NS ([1]; dose 0.40 uM): −0.205 log 2 fold change
Z.LYZ.NS ([1]; dose 0.40 uM): −1.786
Dose.FC.LYZ.NS ([1]; dose 2.00 uM): −0.142 log 2 fold change
Z.LYZ.NS ([1]; dose 2.00 uM): −1.239
Dose.FC.LYZ.NS ([1]; dose 10.00 uM): −0.187 log 2 fold change
Z.LYZ.NS ([1]; dose 10.00 uM): −1.631
SSMD.LYZ.S_Rep (strictly standardized mean difference) [2, 4]: −1.387
Z.LYZ.S (standard z score) [2, 4]: −1.826
SSMD.LYZ.S_Rep (strictly standardized mean difference) [2, 5]: −1.428
Z.LYZ.S (standard z score) [2, 5]: −2.199
SSMD.LYZ.S_Rep (strictly standardized mean difference) [2, 6]: −1.462
Z.LYZ.S (standard z score) [2, 6]: −2.219
SSMD.LYZ.S_Rep (strictly standardized mean difference) [2, 7]: −1.655
Z.LYZ.S (standard z score) [2, 7]: −1.975
Dose.FC.LYZ.S ([2]; dose 0.08 uM): −0.282 log 2 fold change
Dose.FC.LYZ.S ([2]; dose 0.40 uM): −0.340 log 2 fold change
Dose.FC.LYZ.S ([2]; dose 2.00 uM): −0.343 log 2 fold change
Dose.FC.LYZ.S ([2]; dose 10.00 uM): −0.306 log 2 fold change
SSMD.CTG_Rep (strictly standardized mean difference) [3, 4]: −0.926
SSMD.CTG_Rep (strictly standardized mean difference) [3, 5]: −1.023
SSMD.CTG_Rep (strictly standardized mean difference) [3, 6]: −1.783
SSMD.CTG_Rep (strictly standardized mean difference) [3, 7]: −1.348
Dose.FC.CTG ([3]; dose 0.08 uM): −1.012 log 2 fold change
Z.CTG ([3]; dose 0.08 uM): −2.418
Dose.FC.CTG ([3]; dose 0.40 uM): −1.262 log 2 fold change
Z.CTG ([3]; dose 0.40 uM): −3.015
Dose.FC.CTG ([3]; dose 2.00 uM): −1.459 log 2 fold change
Z.CTG ([3]; dose 2.00 uM): −3.486
Dose.FC.CTG ([3]; dose 10.00 uM): −1.446 log 2 fold change
Z.CTG ([3]; dose 10.00 uM): −3.454

c1ccc(NCc2ccc(CNc3ccccn3)cc2)nc1 [WZ811]
Z.LYZ.NS (standard z score) ([1]; dose 0.08 uM): 1.337
Dose.FC.LYZ.NS (log 2 fold change, basal lysozyme secretion) ([1]; dose 0.08 uM): 0.154
Z.LYZ.NS (standard z score) ([1]; dose 0.40 uM): 0.162
Dose.FC.LYZ.NS (log 2 fold change, basal lysozyme secretion) ([1]; dose 0.40 uM): 0.019
Z.LYZ.NS (standard z score) ([1]; dose 2.00 uM): 0.815
Dose.FC.LYZ.NS (log 2 fold change, basal lysozyme secretion) ([1]; dose 2.00 uM): 0.094
Z.LYZ.NS (standard z score) ([1]; dose 10.00 uM): 0.045
Dose.FC.LYZ.NS (log 2 fold change, basal lysozyme secretion) ([1]; dose 10.00 uM): 0.005
Dose.FC.LYZ.S (log 2 fold change, carbachol-induced lysozyme secretion) ([2]; dose 0.08 uM): 0.296
Dose.FC.LYZ.S (log 2 fold change, carbachol-induced lysozyme secretion) ([2]; dose 0.40 uM): 0.007
Dose.FC.LYZ.S (log 2 fold change, carbachol-induced lysozyme secretion) ([2]; dose 2.00 uM): 0.074
Dose.FC.LYZ.S (log 2 fold change, carbachol-induced lysozyme secretion) ([2]; dose 10.00 uM): 0.019
Z.CTG (standard z score) ([3]; dose 0.08 uM): 0.334
Dose.FC.CTG (log 2 fold change, ATP) ([3]; dose 0.08 uM): 0.140
Z.CTG (standard z score) ([3]; dose 0.40 uM): −0.082
Dose.FC.CTG (log 2 fold change, ATP) ([3]; dose 0.40 uM): −0.034
Z.CTG (standard z score) ([3]; dose 2.00 uM): 0.184
Dose.FC.CTG (log 2 fold change, ATP) ([3]; dose 2.00 uM): 0.077
Z.CTG (standard z score) ([3]; dose 10.00 uM): 0.104
Dose.FC.CTG (log 2 fold change, ATP) ([3]; dose 10.00 uM): 0.044

CCCCNc1ncc(-c2ccc(CN3CCOCC3)cn2)c(NC2CCC(O)CC2)n1 (stereo not shown) [UNC2250]
Z.LYZ.NS (standard z score) ([1]; dose 0.08 uM): 1.005
Dose.FC.LYZ.NS (log 2 fold change, basal lysozyme secretion) ([1]; dose 0.08 uM): 0.115
Z.LYZ.NS (standard z score) ([1]; dose 0.40 uM): 0.587
Dose.FC.LYZ.NS (log 2 fold change, basal lysozyme secretion) ([1]; dose 0.40 uM): 0.067
Z.LYZ.NS (standard z score) ([1]; dose 2.00 uM): 0.744
Dose.FC.LYZ.NS (log 2 fold change, basal lysozyme secretion) ([1]; dose 2.00 uM): 0.085
Z.LYZ.NS (standard z score) ([1]; dose 10.00 uM): −1.336
Dose.FC.LYZ.NS (log 2 fold change, basal lysozyme secretion) ([1]; dose 10.00 uM): −0.153
Dose.FC.LYZ.S (log 2 fold change, carbachol-induced lysozyme secretion) ([2]; dose 0.08 uM): 0.142
Dose.FC.LYZ.S (log 2 fold change, carbachol-induced lysozyme secretion) ([2]; dose 0.40 uM): 0.113
Dose.FC.LYZ.S (log 2 fold change, carbachol-induced lysozyme secretion) ([2]; dose 2.00 uM): 0.134
Dose.FC.LYZ.S (log 2 fold change, carbachol-induced lysozyme secretion) ([2]; dose 10.00 uM): −0.205
Z.CTG (standard z score) ([3]; dose 0.08 uM): 0.633
Dose.FC.CTG (log 2 fold change, ATP) ([3]; dose 0.08 uM): 0.265
Z.CTG (standard z score) ([3]; dose 0.40 uM): 0.667
Dose.FC.CTG (log 2 fold change, ATP) ([3]; dose 0.40 uM): 0.279
Z.CTG (standard z score) ([3]; dose 2.00 uM): 0.250
Dose.FC.CTG (log 2 fold change, ATP) ([3]; dose 2.00 uM): 0.105
Z.CTG (standard z score) ([3]; dose 10.00 uM): −0.153
Dose.FC.CTG (log 2 fold change, ATP) ([3]; dose 10.00 uM): −0.064
